# Earlier results, collected in the CATMoS acute toxicity set (Mansouri et al. 2021).
# Test: rat acute oral toxicity
# Settings: in vivo
# Source text: […]The data set underlying the modeling effort for this project was initially compiled by NICEATM and U.S. EPA’s CCTE. Briefly, LD50 data were collected from rat acute oral systemic toxicity tests, including limit tests, ranges/confidence intervals, and discrete LD50 values. The full data set included 21,200 LD50 entries for 15,688 substances. […] Data were reviewed to ensure that LD50 values with obvious errors in the extracted data such as unit conversion errors (e.g., comma and decimal separator misplacements) were either fixed or removed. After this review, 16,209 LD50 values remained. Many of the chemicals represented had multiple LD50 entries, requiring that a single representative value per Chemical Abstracts Service Registry Number (CASRN) identifier be defined to facilitate modeling efforts. Based on ATWG feedback and to define the representative LD50 as a protective value while accounting for the distribution across multiple LD50s, the median of the lowest quartile was computed using only discrete LD50 values (omitting limit test data and range and confidence interval data). A detailed summary of the data compilation is available online on the NICEATM webpage dedicated to the collaborative modeling project (NTP 2020).
# […][…] For categorical designations, limit test and range/confidence interval LD50 data were integrated wherever possible. As such, the number of chemicals with end point values/calls varies across the modeling end points (Table 3) based on whether chemicals had representative LD50 values and/or other data. If a chemical had both, the representative value was used to determine categorical calls rather than limit test data. Some data were useable only for certain end points and categories depending on the thresholds. For example, ranges that spanned multiple hazard categories were considered only for the binary (very toxic/nontoxic) end points and omitted from rendering a determination for hazard category assignment.
# […]The final data set comprising 11,992 chemicals was split into training and evaluation sets […], respectively. This process was performed semirandomly by ordering chemicals based on the five end points (categorical and continuous LD50 values) and partitioning every fourth record into the evaluation set accordingly. This approach was taken to ensure an equivalent distribution of the LD50 values and the different hazard categories between the training and the evaluation sets without supervised sampling of the chemicals based on structures (Figure 1A). The sources of the chemical structures were also kept equivalent between the two sets, with chemical structures obtained from DSSTox, being the highest quality, representing over 75% of each set (Figure 1B).
row,SMILES,LD50
1,C[N+](C)(C)CCO,6640 mg/kg
2,CCC(C)OC(C)=O (stereo not drawn),3200 mg/kg
3,COc1c2occc2cc2ccc(=O)oc12,791 mg/kg
4,CC(=O)c1ccc(OCC(=O)NN)cc1,1820 mg/kg
5,CC(C)OC(Cl)=C(Cl)C(Cl)=C(Cl)Cl,1210 mg/kg
6,CCOP(=O)(O)Sc1ccc(C)cc1,50 mg/kg
7,CN(c1nc2ccccc2s1)C1CCN(CCCCOc2ccc(F)cc2)CC1,154 mg/kg
8,CC(C)c1s[nH]c2nc(C(C)(C)C)nc(=O)c1-2,10200 mg/kg
9,CC(C)c1ccc(CO)cc1,1020 mg/kg
10,Cc1ccc(O)c(C2CCCCC2)c1,1870 mg/kg
11,O=C1CCc2cc(C(=O)CCCN3CCN(c4ccccc4Cl)CC3)ccc2N1,500 mg/kg
12,CC(Cl)CO (stereo not drawn),218 mg/kg
13,Cn1c(=O)c2c(ncn2CCCCCN2CCN(c3cccc(C(F)(F)F)c3)CC2)n(C)c1=O,660 mg/kg
14,O=C(O)CF,4.68 mg/kg
15,CC1CC(C)(C)CC(OOC(C)(C)C)(OOC(C)(C)C)C1 (stereo not drawn),12900 mg/kg
16,ClCCCCCCCCC(Cl)(Cl)Cl,370 mg/kg
17,CC=CC(=O)OCC,3000 mg/kg
18,CC(C)=C1CCC(C)CC1=O (stereo not drawn),470 mg/kg
19,CC(OC(C)c1ccccc1)c1ccccc1 (stereo not drawn),9800 mg/kg
20,ClC=C(Cl)c1ccccc1,4000 mg/kg
21,CN(N=O)C(=O)NC(N)=O,450 mg/kg
22,COP(=S)(OC)Oc1ccc(S(C)(=O)=O)c(C)c1,125 mg/kg
23,CC=C(CC)C(=O)NC(N)=O,2500 mg/kg
24,CCCC(=O)c1ccc2c(c1)N(CCCN1CCN(C)CC1)c1ccccc1S2,413 mg/kg
25,CC1CC(Cl)CCC1C(=O)OC(C)(C)C (stereo not drawn),4560 mg/kg
26,COc1ccc(C(=O)CCC(=O)O)c2ccoc12,1230 mg/kg

row,SMILES,LD50
1,CN(CCCl)c1ccc(C=CC2=[N+](C)c3ccccc3C2(C)C)cc1,2260 mg/kg
2,CCN(Cc1ccc(Cl)nc1)/C(=C/[N+](=O)[O-])NC,1580 mg/kg
3,NCCSSCCN,896 mg/kg
4,COc1cc(NS(=O)(=O)c2ccc(N)cc2)ncn1,5620 mg/kg
5,CCCCCCCCSCCO,8530 mg/kg
6,CC1OCN=C(c2ccccc2)S1 (stereo not drawn),655 mg/kg
7,C[C@@H]1O[C@@H](O[C@@H]2C=C3CC[C@@H]4[C@H](CC[C@]5(C)[C@@H](c6ccc(=O)oc6)CC[C@]45O)[C@@]3(C)CC2)[C@H](O)[C@H](O)[C@H]1O,56 mg/kg
8,CC(C)c1ccc(NC(=O)N(C)C)cc1,1830 mg/kg
9,CN1CCN(CCC(=O)NN=Cc2ccc([N+](=O)[O-])o2)CC1,300 mg/kg
10,Cc1cc(C)c(C)c(C)c1,5160 mg/kg
11,CCOP(=S)(OCC)Oc1nc(Cl)n(C(C)C)n1,27 mg/kg
12,CCc1c(Cl)ccc(O)c1Cl,2260 mg/kg
13,COP(=O)(OC1CCCCC1)SC (stereo not drawn),240 mg/kg
14,CCOP(=S)(OCC)SCS(=O)(=O)CC,1.2 mg/kg
15,CCOC(=O)CC(=O)CCl,200 mg/kg
16,CNC(=O)Oc1ccc(Cl)c2c1OC(C)(C)C2,248 mg/kg
17,CC(C)NNCS(=O)(=O)O,330 mg/kg
18,CC(O)CN(C)C (stereo not drawn),1740 mg/kg
19,N#Cc1ccccc1CN1CCc2sccc2C1,228 mg/kg
20,S=c1[nH]n(-c2ccccc2)c(=S)s1,763 mg/kg
21,CNC(C)CC1CCCC1 (stereo not drawn),169 mg/kg
22,O=C(O)C1CC=CCC1 (stereo not drawn),4260 mg/kg
23,N#CCC[P+](CCC#N)(CCC#N)CC[P+](CCC#N)(CCC#N)CCC#N,10000 mg/kg
24,CCC(=O)OCc1ccc(OC)cc1,3330 mg/kg
25,O=P(OC=C(Cl)Cl)(OCCCl)OCCCl,25 mg/kg
26,CCCC1C2C=CC(C2)C1C=O (stereo not drawn),4600 mg/kg

row,SMILES,LD50
1,OC1OCC2C1C1(Cl)C(Cl)=C(Cl)C2(Cl)C1(Cl)Cl (stereo not drawn),1750 mg/kg
2,CCOc1ccccc1N1CCN(CC=Cc2ccc3c(c2)CCC(=O)N3)CC1,500 mg/kg
3,CCC(CC)(CO)CO,850 mg/kg
4,CCCCCCCCCCCCOCCOCCOCCOS(=O)(=O)O,1820 mg/kg
5,C=CCC(CC)(CC)C(N)=O,400 mg/kg
6,CC[C@H](OC(C)=O)C(C[C@H](C)N(C)C)(c1ccccc1)c1ccccc1,29 mg/kg
7,O=C(C(F)(F)F)C(F)(F)Cl,85 mg/kg
8,CC(F)(F)C(F)(F)C(F)(F)C(O)(F)F,1110 mg/kg
9,COc1nc(C)nc(NC(=O)NS(=O)(=O)c2ccccc2CCC(F)(F)F)n1,986 mg/kg
10,C=CC(OC(C)=O)OC(C)=O,35 mg/kg
11,CC(C)CNC(=S)NCC(C)C,800 mg/kg
12,CCN(CCCOS(C)(=O)=O)CCCOS(C)(=O)=O,375 mg/kg
13,CCOCc1cnc(C)nc1N,1450 mg/kg
14,CCS(=O)(=O)CCO,18000 mg/kg
15,CNC(=O)Oc1ccccc1CCCSC,220 mg/kg
16,FC(F)(F)c1nc2ccc(-c3ccccc3)cc2[nH]1,69 mg/kg
17,NC(=O)OC[C@H](O)[C@@H](O)[C@H](N)C(=O)N[C@@H](C(=O)O)[C@H]1O[C@@H](n2cc(CO)c(=O)[nH]c2=O)[C@H](O)[C@@H]1O,14700 mg/kg
18,c1cncc(CSSCc2cccnc2)c1,2150 mg/kg
19,Nc1c2c(nc3ccccc13)CCCC2,70 mg/kg
20,CC(=O)SCC[N+](C)(C)C,100 mg/kg
21,CC(=NO)C(C)(O)C#Cc1ccccc1 (stereo not drawn),3120 mg/kg
22,OC(CCN1CCCCC1)(c1ccccc1)C1CC2C=CC1C2 (stereo not drawn),750 mg/kg
23,O=C(O)Cc1csc(-c2ccc(Cl)cc2)n1,850 mg/kg
24,C=CCSC1=NCCS1,110 mg/kg
25,CC(C)[C@@]1(NC(=O)[C@@H]2C[C@@H]3c4cccc5[nH]cc(c45)C[C@H]3N(C)C2)O[C@@]2(O)[C@@H]3CCCN3C(=O)[C@H](Cc3ccccc3)N2C1=O,2640 mg/kg
26,ClCCOCOCCCl,65 mg/kg

row,SMILES,LD50
1,COP(=S)(OC)Oc1ccc(S(N)(=O)=O)cc1,160 mg/kg
2,CC1(C)CCCO1,4000 mg/kg
3,OCP(CO)CO,178 mg/kg
4,COP(=S)(OC)Oc1ccc(Cl)c([N+](=O)[O-])c1,500 mg/kg
5,CC(C#N)N1CCOCC1 (stereo not drawn),87 mg/kg
6,C=CC(O)CC#N (stereo not drawn),200 mg/kg
7,CNC(=O)N(C)N=O,280 mg/kg
8,Nc1cc(Cl)cc(C(=O)O)c1Cl,3500 mg/kg
9,CCOC(=O)C=C(C)OP(=O)(OCC)OCC,22 mg/kg
10,O=C1C=CC(=O)N1C(=O)NCNC(=O)N1C(=O)C=CC1=O,1420 mg/kg
11,CCOC(=O)N1CC=Cc2ccccc21,195 mg/kg
12,Cc1c(Cc2cc(C(C)(C)C)c(O)c(C(C)(C)C)c2)c(C)c(Cc2cc(C(C)(C)C)c(O)c(C(C)(C)C)c2)c(C)c1Cc1cc(C(C)(C)C)c(O)c(C(C)(C)C)c1,1500 mg/kg
13,CC(C)c1ccc(-c2ccccc2)cc1,8500 mg/kg
14,COP(=O)(OC)SCN1C(=O)c2ccccc2C1=O,50 mg/kg
15,CC(CC(=O)OC(C)(C)C)=NNc1ccc(N2CCOCC2)nn1,970 mg/kg
16,CCCc1ccc(O)c(OC)c1,2600 mg/kg
17,O=C(O)CCC(CC(=O)O)(C(=O)O)P(=O)(O)O (stereo not drawn),4000 mg/kg
18,ON=CC(O)(C#Cc1ccccc1)c1ccccc1 (stereo not drawn),8750 mg/kg
19,O=C(Nc1ccc(Br)cc1)c1cc(Br)ccc1O,410 mg/kg
20,OCc1ccccc1,1230 mg/kg
21,O=C(CCl)CC(=O)Nc1ccccc1,1820 mg/kg
22,CCCCCCCCCCCCN,1020 mg/kg
23,Cc1nccnc1C,613 mg/kg
24,CCn1c(=O)oc2ccc(Cl)cc21,1350 mg/kg
25,CCN(CC(=O)O)S(=O)(=O)C(F)(F)C(F)(F)C(F)(F)C(F)(F)C(F)(F)C(F)(F)C(F)(F)C(F)(F)F,619 mg/kg
26,OCCC(F)(F)C(F)(F)C(F)(F)C(F)(F)C(F)(F)C(F)(F)F,1750 mg/kg

row,SMILES,LD50
1,O=Cc1ccc(Cl)cc1,1580 mg/kg
2,COc1ccc2c(c1)CCC(N(CCCCOC(=O)c1ccc(OC)c(OC)c1)C(C)C)C2 (stereo not drawn),1540 mg/kg
3,COc1ccc(C(=O)CCC(=O)O)c2cc(C)oc12,2160 mg/kg
4,CC1(C)C(=O)N(Cl)C(=O)N1Cl,542 mg/kg
5,CCOP(=O)(OCC)C(SCC)(Sc1ccccc1)P(=O)(OCC)OCC,24 mg/kg
6,"CC1C(=O)C[C@]2(C(C)C)C[C@H]12 (single isomer, unassigned; (-))",192 mg/kg
7,CCN(CC)CCOC(=O)CC(O)(c1ccccc1)c1ccccc1,2310 mg/kg
8,COc1ccc(C(OC)C2CCCCC2N2CCCCC2)cc1 (stereo not drawn),92 mg/kg
9,CN(C)C(=O)CCCOC(=O)C(C)(C)Oc1ccc(Cl)cc1,2480 mg/kg
10,Cc1cc(C(C)(C)CC(C)(C)C)ccc1OCCOCC[N+](C)(C)Cc1ccccc1,800 mg/kg
11,COc1cc(C)c2[nH]c(=O)sc2c1,7580 mg/kg
12,CCCN1CCCC1=Nc1ccc(Cl)c(Cl)c1,2120 mg/kg
13,CCNC(C)c1ccccc1 (stereo not drawn),360 mg/kg
14,Cc1ccc2[nH]nnc2c1,1600 mg/kg
15,CC=C(C)C(=O)N1CCCc2cc(C)ccc21,2200 mg/kg
16,Cc1cccc(/N=N\N(C)C)c1,300 mg/kg
17,CCCS(=O)(=O)c1c(Cl)cnc(Cl)c1Cl,1100 mg/kg
18,CCCCOC(C1=NCCCN1)c1ccccc1 (stereo not drawn),310 mg/kg
19,C=C[C@@]1(C)CC(=O)[C@]2(O)[C@@]3(C)[C@@H](O)CCC(C)(C)[C@@H]3[C@H](O)[C@H](OC(C)=O)[C@@]2(C)O1,2550 mg/kg
20,NC(=O)CC[C@H](N)C(=O)O,7500 mg/kg
21,OC(CN1CCCCC1)c1cc(-c2ccccc2)on1 (stereo not drawn),1980 mg/kg
22,c1ccc2cnccc2c1,360 mg/kg
23,CC1CNC(C)CN1 (stereo not drawn),3160 mg/kg
24,c1cn[nH]c1,1010 mg/kg
